Where a name gives a salt, the structure may show the parent alone. Read-outs that look alike come from different tables or passages of the source.
Key:
[1] = Corrosion Test 1 (dynamic wheel test; 3 wt% brine/Mentor 28; CO2 + H2S); conditions: for % Protection: 24 h, 70° C.
Protocol: (§1) For each compound three mild steel coupons (approximately 100 mm×12 mm×1.5 mm) were tested at each concentration. Each was contacted in a 250 ml bottle with 200 ml of a test fluid either saturated with a carbon dioxide at 20° C. or containing 100 ppm hydrogen sulphide or having both CO2 and H2 S present in those amounts. The test fluid was treated with a 30% aqueous solution of the compound under test at 2, 10, 50 and 250 ppm except where indicated to the contrary. The coupon was subjected to a dynamic wheel test in which the bottle was mounted radially on the periphery of 650 mm diameter wheel which was rotated at about 40 rpm for 24 hours at 70° C. The weight loss was obtained, and also measured in a control experiment where no inhibitor was present. From this the % protection was calculated as % reduction in weight loss.
Test fluid: 100 ml 3 wt% brine/100 ml Mentor 28 (Mentor®28 is a depolarised kerosene available from Exxon Chemical Company)
(§2) Corrosives: Saturated CO2 +100 ppm H2 S

[2] = Corrosion Test 2 (dynamic wheel test; 3 wt% brine; CO2 + H2S); conditions: 24 h, 70° C.
Protocol: as §1
Test Fluid: 200 ml 3 wt% brine
as §2

[3] = Emulsion Test (3 wt% brine / heptane); type: physicochemical; design: Emulsion thickness after 30 mins: unit not given here; conditions: for Time to break emulsion: 1 ml of 35 wt% IPA solution, 50 ml 3 wt% brine, 50 ml heptane; for Appearance after 30 mins, hydrocarbon: hydrocarbon layer; for Appearance after 30 mins, hydrocarbon / Appearance after 30 mins, water / Emulsion thickness after 30 mins: 50 ml 3 wt% brine/50 ml heptane; for Appearance after 30 mins, water: water layer
Protocol: 1 ml of the solutions used for Test A was shaken with 50 ml of 3 wt% brine and 50 ml of heptane for 1 minute in a 150 ml bottle. The emulsion was observed, and the time noted for the emulsion to break and form a clean interface with clear liquid layers. If at 30 minutes this had not occurred, the appearance was recorded together with the thickness of any persisting emulsion.

[4] = Solubility Test (35 wt% solution in isopropylalcohol shaken with water, brine or heptane); type: physicochemical
Protocol: The active material under test was made up into a 35 wt% solution in isopropylalcohol (IPA). 0.3 ml of this solution was shaken with 10 ml of each of the liquids in which solubility is to be tested: water, 5 wt% NaCl solution (brine) and heptane. The mixture was observed after 30 minutes and 24 hours.

[5] = 0.3 ml of 35 wt% IPA solution in 10 ml heptane, 30 minutes and 24 hours
[6] = 0.3 ml of 35 wt% IPA solution in 10 ml water, observed after 30 minutes and 24 hours

| Compound | % Protection ([1]; 2 ppm, 30% solution) [%] | % Protection ([1]; 10 ppm, 30% solution) [%] | % Protection ([1]; 50 ppm, 30% solution) [%] | % Protection ([1]; 250 ppm, 30% solution) [%] | Time to break emulsion [3] [min] | Appearance after 30 mins, hydrocarbon [3] | Appearance after 30 mins, water [3] | other results |
| --- | --- | --- | --- | --- | --- | --- | --- | --- |
| NCCc1ccccn1 [2-aminoethyl pyridine, reference compound] | 0 | 45 | 55 | 86 |  |  |  |  |
| CCc1ccccn1 [2-ethylpyridine, reference compound] | 3 | 7 | 16 | 23 |  |  |  |  |
| CCc1ccccn1 [2-ethylpyridine.HCL, reference compound] | 10 | 10 | 24 | 18 |  |  |  |  |
| CCc1ccncc1 [4-ethylpyridine.HCL, reference compound] | 2 | 5 | 13 | 16 |  |  |  |  |
| CCCCCCCCCCCCNCCc1ccccn1 [21 acetate salt] | 21 | 74 | 94 | 96 |  |  |  |  |
| CCCCCCCCNCCc1ccccn1 [Example 2] |  |  |  |  | 5 | clear | clear | % Protection ([2]; 2 ppm): 37%; % Protection ([2]; 10 ppm): 34%; % Protection ([2]; 50 ppm): 84%; % Protection ([2]; 250 ppm): 94%; % Protection ([1]; 2 ppm, * active material added as undiluted compound): 50%; % Protection ([1]; 10 ppm, * active material added as undiluted compound): 82%; % Protection ([1]; 50 ppm, * active material added as undiluted compound): 85%; % Protection ([1]; 250 ppm, * active material added as undiluted compound): 89%; SOLUBILITY IN: Heptane [4]: S |
| CCCCCCCCCCCCCCNCCc1ccccn1 [Example 5] | 0 | 43 | 46 | 90 | > 30 | hazy | hazy | % Protection ([2]; 2 ppm): 3%; % Protection ([2]; 10 ppm): 48%; % Protection ([2]; 50 ppm): 93%; % Protection ([2]; 250 ppm): 94%; Emulsion thickness after 30 mins [3]: 0.5; SOLUBILITY IN: Heptane [4, 5]: S; SOLUBILITY IN: Water [4, 6]: S |
| CCCCCCCCCCCCNCCc1ccccn1 [Example 21, N-dodecyl-β-(2-pyridyl)-ethylamine] | 17 | 51 | 86 | 93 |  |  |  | corrosion protection compared with Example 4 ([1]; after addition of acetic acid): substantially identical protection to that seen in Example 4; corrosion protection compared with Example 4 ([1]; unsalified product): inferior corrosion protection to Example 4 |
| CCCCCCCCNCCc1ccncc1 [Example 23] | 38 | 49 | 83 | 92 | 10 | clear | clear | SOLUBILITY IN: Heptane [4]: S; SOLUBILITY IN: Water [4]: S |
| CCCCCCCCCCNCCc1ccncc1 [Example 24] | 58 | 80 | 88 | 95 | > 30 | hazy | hazy | SOLUBILITY IN: Heptane [4, 5]: S; SOLUBILITY IN: Water [4, 6]: S |
| CCCCCCCCCCCCCCNCCc1ccncc1 [Example 26] |  |  |  |  | > 30 | clear | hazy | Emulsion thickness after 30 mins [3]: 1.0; SOLUBILITY IN: Heptane [4, 5]: S; SOLUBILITY IN: Water [4, 6]: S |
| c1ccc(CNCCc2ccncc2)cc1 [Example 29] | 25 | 56 | 60 | 67 | 1 | clear | clear |  |
| NCCNCCc1ccncc1 [Example 32] |  |  |  |  | > 30 | clear | hazy |  |
| NCCCNCCc1ccncc1 [Example 33] |  |  |  |  | 1 | clear | clear | SOLUBILITY IN: Brine ([4]; 0.3 ml of 35 wt% IPA solution in 10 ml 5 wt% NaCl solution, 30 minutes and 24 hours): S; SOLUBILITY IN: Water [4, 6]: S |
